Measured values from article PMC11661381, “Covalent-fragment screening identifies selective inhibitors of multiple Staphylococcus aureus serine hydrolases important for growth and biofilm formation” (Research Square, 2024).

What was measured:
[1] = test system: S. aureus biofilm formation; experiment: Crystal violet biofilm inhibition assay; assay type: cell-based, Staphylococcus aureus; conditions: for effect on biofilm formation (in words): wild type S. aureus, 1–100 μM
Protocol: Overnight cultures of S. aureus (wild-type, transposon mutants and complemented) strains (Table S3) grown in TSB, were subcultured on fresh TSB and grown to OD600 of 0.5. Biofilms were cultured in 96 well plates by transferring 1 μL of the culture to 200 μL of TSB plus 1% glucose with or without the inhibitors and incubated for 16 hours at 37°C without agitation. The inhibitor concentrations ranged from 1, 5, 10, 50 and 100 μM final concentration. Equal volume of DMSO was added as control. The wells were washed to remove the planktonic cells and the plates air-dried before staining with 200μL of 0.1% w/v crystal violet for 10 minutes at room temperature. The wells were washed to remove excess dye and blotted to dry. Each well was filled with 200μL of DMSO for 10 minutes at room temperature to dissolve the dye. The absorbance was measured at 590 nm using Spark multimode microplate reader (TECAN). The data represents n = 3 independent experiments and are expressed as a percentage of the uninhibited wild-type bacteria. All the data are normalized such that 100% represent untreated WT S. aureus. P values were determined using ordinary one-way ANOVA multiple comparisons GraphPad Prism 10.0 software. *P < 0.05, **P < 0.01, ***P < 0.001 and ****P < 0.0001.

S. epidermidis = experiment: Bacterial growth inhibition assay, S. epidermidis; assay type: cell-based, Staphylococcus epidermidis
Protocol: (§1) Bacteria were streaked from glycerol stocks onto agar plates and grown overnight at 37°C. A single colony was inoculated in either Tryptic Soy Broth (TSB; Sigma-Aldrich, St. Louis, MO; used for most species) or Bacto Brain Heart Infusion (BHI; Becton, Dickinson, and Company, Franklin Lakes, NJ; used for L. monocytogenes and S. pyogenes) and grown at 37°C shaking until mid-exponential phase (OD600 = 0.5), then diluted 1:10 in cation-adjusted Mueller Hinton Broth (MHB2, Millipore Sigma, Bedford, MA; used for most species) or BHI (for L. monocytogenes and S. pyogenes). 15 μl of this dilution was added to 135 μl of MHB2 or BHI in a flat-bottom clear 96-well plate for a starting inoculum of ~ 5 × 10^5 CFU/ml.
(§2) For bacterial growth inhibition assay, wild-type S. aureus and transposon mutants (fphB::Tn, fphE::Tn and fphH::Tn) were grown with compounds at final concentrations ranging from 1–100 μM and compared to growth in media with an equivalent percentage of DMSO. […] All growth curves were repeated at least twice and analyzed in GraphPad Prism 10.0 software. […] The cultures were incubated overnight at 37°C, 5% CO2 before their optical density was read. The EC50 of the antibiotics against the bacteria in the presence or absence of N34 were determined by fitting the normalized data into a four-parameter logistic model in GraphPad Prism 10.0 software.

Streptococcus pyogenes = experiment: Bacterial growth inhibition assay, S. pyogenes; assay type: cell-based
Protocol: as §1, §2

[2] = test system: Fph enzymes in live S. aureus cells (USA300); experiment: Competition of FP-alkyne labeling in live S. aureus cells; assay type: cell-based, Staphylococcus aureus
Protocol: (§3) One colony of each of S. aureus wild-type and transposon mutants fphB::Tn, fphE::Tn and fphH::Tn picked from growth on a Tryptic soya agar plate were inoculated in 5 mL of Tryptic soya broth (TSB). The overnight bacterial cultures were spun down at 5,000 g for 10 min and pellet was collected. The pellets were washed twice in 1X PBS buffer and resuspended in the same buffer. Cells were first preincubated with the indicated concentrations of inhibitors for 2hr at 37°C. The cells were washed twice with 1X PBS buffer. The resuspended pellets were incubated with Fluorophosphonate-alkyne (FP-alkyne) for 30 min at 37°C. Cells were washed again twice with 1X PBS buffer and resuspended in with 1X PBS and 0.1% Triton–X and lysed by beat beating at 4°C. Next, lysed cells (20 μL) were mixed with 2.16 μL of freshly prepared click mix (0.5 μL of 50 mM CuSO4 in H2O, 1.16 μL of 100 mM BTTAA in DMSO, and 0.5 μL of N3-Cy5 in DMSO) and 1.16 μL of 300 mM sodium ascorbate solution in H2O and incubated at 37 °C for 30 min. Next step, 20 μL of 4X SDS loading buffer was added in each sample and boiled at 100 °C for 10 min. The processed samples were allowed to cool and analyzed by SDS-PAGE (12%) running at 120 V in an electrophoresis chamber. Cy5 fluorescence was imaged using the Cy5 channel on a Typhoon 9410 Imager (Amersham Biosciences).

[3] = Cytotoxicity assay (CellTiter-Blue); assay type: cell-based; conditions: human; HEK293 cells, 48hr of incubation
Pseudomonas aeruginosa = experiment: Bacterial growth inhibition assay, P. aeruginosa; assay type: cell-based
Protocol: as §1, §2

rFphH = molecular target: T1, rFphH (Staphylococcus aureus, UniProt A0A0H2XJL0); experiment: FP-Cy5 active site labeling of recombinant protein, rFphH; assay type: binding; conditions: 500 nM rFphH
T1 construct: otherwise full-length FphE (Uniprot ID Q2FDS6) and FphH (A0A0H2XJL0) proteins; His6 (3C-cleavable, pETNKI-his-3C-LIC vector) (N); made in house; E. coli is inferred from the pET28a-type vector, IPTG induction and LB/kanamycin
T1 sequence (A0A0H2XJL0 1-246): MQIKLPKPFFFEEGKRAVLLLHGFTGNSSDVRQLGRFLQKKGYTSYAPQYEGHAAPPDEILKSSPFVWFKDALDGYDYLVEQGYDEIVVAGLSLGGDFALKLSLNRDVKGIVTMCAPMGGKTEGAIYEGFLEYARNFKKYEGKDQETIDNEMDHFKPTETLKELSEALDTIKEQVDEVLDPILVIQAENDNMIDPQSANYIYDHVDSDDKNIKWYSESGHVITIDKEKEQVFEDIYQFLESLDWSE
Protocol: (§4) For activity-based protein labeling experiments, 500 nM of rFphB, rFphE and rFphH in 1X PBS and 0.1% Triton–X were preincubated with different concentrations of inhibitors or DMSO for 2hr at room temperature, followed by adding 300 nM of fluorophosphonate (FP) alkyne and incubated for 30 min at room temperature. Next, 20 μL of the reaction volume were mixed with 2.16 μL of freshly prepared click mix (0.5 μL of 50 mM CuSO4 in H2O, 1.16 μL of 100 mM BTTAA in DMSO, and 0.5 μL of N3-Cy5 in DMSO) and 1.16 μL of 300 mM sodium ascorbate solution in H2O. Samples were incubated at 37°C for 30 min, boiled in SDS loading buffer and analyzed by SDS–PAGE. Cy5 fluorescence was imaged using the Cy5 channel on a Typhoon 9410 Imager (Amersham Biosciences).

Escherichia coli = experiment: Bacterial growth inhibition assay, E. coli; assay type: cell-based
[4] = test system: S. aureus wild type and fph transposon mutants; experiment: Bacterial growth inhibition assay, S. aureus; assay type: cell-based, Staphylococcus aureus; conditions: 1–100 μM
Protocol: as §1
(§5) For bacterial growth inhibition assay, wild-type S. aureus and transposon mutants (fphB::Tn, fphE::Tn and fphH::Tn) were grown with compounds at final concentrations ranging from 1–100 μM and compared to growth in media with an equivalent percentage of DMSO. Each condition was plated as technical duplicates. The plate was incubated at 37°C with shaking every 15 minutes followed by measurement of OD600 for 14 hr. All growth curves were repeated at least twice and analyzed in GraphPad Prism 10.0 software. For bacterial resistance analysis, overnight culture of S. aureus Newman was diluted to an OD600 of 0.01 in MHB. This was followed by pretreatment with 20 μM N34 or equivalent DMSO volume as control. The pretreatment was allowed to proceed for 3 hr before initiating treatment with different concentrations of the test antibiotics (Table S5). The cultures were incubated overnight at 37°C, 5% CO2 before their optical density was read. The EC50 of the antibiotics against the bacteria in the presence or absence of N34 were determined by fitting the normalized data into a four-parameter logistic model in GraphPad Prism 10.0 software.

S. aureus Newman = experiment: Antibiotic susceptibility after N34 pretreatment; assay type: cell-based, Staphylococcus aureus; conditions: 20 μM N34 pretreatment, then antibiotics; Table S5
Protocol: The strong antibiofilm activity of the boronic acid compounds argues for their possible use in combination therapy with antibiotics to treat staphylococcal infections. Therefore, we wanted to test if the N34 treatment impacts the susceptibility profile of the S. aureus to antibiotics. To test this, we pretreated bacteria with a sub-inhibitory concentration of N34 (20 μM) for 2 hours at 37°C followed by treatment with selected antibiotics.
as §5, with “This was followed by pretreatment with 20 μM N34 or equivalent DMSO volume as control. The pretreatment was allowed to proceed for 3 hr before initiating treatment with different concentrations of the test antibiotics (Table S5).” left out

[5] = molecular target: T2, Fph enzymes in live S. aureus cells (USA300) (Staphylococcus aureus, UniProt A0A0H2XJG5); experiment: Competition of FP-alkyne labeling in live S. aureus cells; assay type: cell-based; conditions: live cells, increasing concentrations, 120 min
T2 construct: endogenous in cells; host or cells: live S. aureus USA300 (LAC) wild-type cells
T2 sequence (A0A0H2XJG5 1-322): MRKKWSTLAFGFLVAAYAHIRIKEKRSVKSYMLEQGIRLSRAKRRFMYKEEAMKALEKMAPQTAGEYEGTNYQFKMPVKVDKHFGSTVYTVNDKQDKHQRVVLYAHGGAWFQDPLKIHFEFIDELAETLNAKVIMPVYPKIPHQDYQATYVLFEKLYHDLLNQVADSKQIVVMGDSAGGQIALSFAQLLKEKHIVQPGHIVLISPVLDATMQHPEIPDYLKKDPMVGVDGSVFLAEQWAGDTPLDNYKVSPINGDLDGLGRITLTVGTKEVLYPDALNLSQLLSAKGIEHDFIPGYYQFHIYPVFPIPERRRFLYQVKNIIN
Protocol: as §3

rFphB [6] = molecular target: T3, rFphB (Staphylococcus aureus, UniProt A0A0H2XJG5); experiment: Intact protein LC-MS of rFphB with inhibitor; assay type: binding; conditions: rFphB:X20 1:10
T3 construct: made in house
T3 sequence (A0A0H2XJG5 1-322): T2 sequence (A0A0H2XJG5 1-322)
Protocol: Next, 10 μL of the labeled sample was injected and analyzed by LC-MS. For LC-MS conditions, 95% solvent A (0.1% formic acid in LC-MS grade water), 5% solvent B (0.1% formic acid in LC-MS grade acetonitrile) at 0.6 mL/min was used for 2 min to remove excess of salts into waste before a linear 6-minute gradient from 80% solvent A (20% solvent B) to 20% solvent A (80% solvent B), followed by a one-minute 95% solvent A (5% solvent B). Protein labeling efficiency was quantified by UV. The acquired mass of protein was deconvoluted using the deconvolution software in Agilent Bioanalysis Software package.

rFphB [7] = molecular target: T3, rFphB; experiment: FP-Cy5 active site labeling competition of recombinant protein, rFphB; assay type: binding
Protocol: as §4

HEK293 cells = experiment: Cytotoxicity assay (CellTiter-Blue); assay type: cell-based; conditions: mammalian cells

Row | SMILES | effect on biofilm formation in transposon mutants (in words) ([1]; fphH or fphE transposon mutant) | effect on biofilm formation (in words) [1] | growth inhibition (in words) (S. epidermidis) | growth inhibition (in words) (Streptococcus pyogenes) | competition of FP labeling in live cells (in words) ([2]; 100 μM compound, live S. aureus cells) | concentration giving partial inhibition of FphE and other lower molecular weight Fph proteins ([2]; live cells, doses 5–100 μM, 120 min preincubation) | CC50 at 48 h [3] | growth defect (in words) (Pseudomonas aeruginosa) | competition of FP-Cy5 labeling of rFphH (in words) (rFphH) | growth defect (in words) (Escherichia coli) | effect on S. aureus growth (in words) [4] | impact of N34 pretreatment on antibiotic susceptibility (in words) (S. aureus Newman) | reduction of biofilms ([1]; WT cells, highest concentrations) | reduction of biofilms ([1]; fphB mutant) | competition of FP-alkyne labeling of native FphB (in words) [5] | adduct formation on rFphB (in words) (rFphB [6]) | competition of FP-Cy5 labeling of rFphB (in words) (rFphB [7]) | off-target effects in mammalian cells (in words) (HEK293 cells)
1 | OB(O)c1ccc(C(F)(F)F)s1 [N34] | not further increased by addition of even 100 μM concentrations of N34 | most pronounced effects | inhibited only by the FphH inhibitor N34 | no growth inhibition | blocked FP labeling of FphH | ≥ 50 µM | > 200 µM | no significant growth defect | dose-dependently blocked labeling of rFphH | no significant growth defect | both the fphE and fphH mutants grew slower than wild type | does not impact resistance or susceptibility profiles of the antibiotics | – | – | – | – | – | –
2 | COc1cc2c(cc1S(=O)(=O)F)C(=O)NCCC2 [X20] | – | significant inhibition of biofilm formation | – | – | – | – | – | – | – | – | minimal effect on planktonic growth | – | 60% | 40% | retains both its potency and selectivity towards the natively expressed FphB | a single X20 adduct formed | dose-dependently blocked labeling of rFphB | did not show any off-target effects in mammalian cells
